Test results from ChEMBL document CHEMBL3526135, “Induction of xenobiotic receptors, transporters, and drug metabolizing enzymes by oxycodone” (Drug Metab Dispos, 2013).

Assays:
Assay type in all cases: ADME, organism-based; call rule not given here
Parameters in all cases: dose 15 mg/kg, route intraperitoneal
Slc27a5 = assay: Effect on Slc27a5 mRNA expression in Sprague-Dawley rat liver at 15 mg/kg, ip administered twice daily every 12 hrs for 8 days by microarray analysis relative to control; conditions: read-out: FC
CYP3a1 = assay: Effect on CYP3a1 mRNA expression in Sprague-Dawley rat liver at 15 mg/kg, ip administered twice daily every 12 hrs for 8 days by microarray analysis relative to control; conditions: read-out: FC
Rattus norvegicus [1] = assay: Effect on GAPDH mRNA expression in Sprague-Dawley rat liver at 15 mg/kg, ip administered twice daily every 12 hrs for 8 days by qRT-PCR analysis relative to control; conditions: in vivo
ABCB1 = assay: Upregulation of ABCB1 protein expression in Sprague-Dawley rat liver microsomes at 15 mg/kg, ip administered twice daily every 12 hrs for 8 days by Western blot analysis relative to control; conditions: read-out: FC
Yc2/Gsta5 = assay: Effect on Yc2/Gsta5 mRNA expression in Sprague-Dawley rat liver at 15 mg/kg, ip administered twice daily every 12 hrs for 8 days by microarray analysis relative to control; conditions: read-out: FC
CYP4a10 = assay: Effect on CYP4a10 mRNA expression in Sprague-Dawley rat liver at 15 mg/kg, ip administered twice daily every 12 hrs for 8 days by microarray analysis relative to control; conditions: read-out: FC
Slc22a5 = assay: Effect on Slc22a5 mRNA expression in Sprague-Dawley rat liver at 15 mg/kg, ip administered twice daily every 12 hrs for 8 days by microarray analysis relative to control; conditions: read-out: FC
Rattus norvegicus [2] = assay: Effect on Slc38a4 mRNA expression in Sprague-Dawley rat liver at 15 mg/kg, ip administered twice daily every 12 hrs for 8 days by qRT-PCR analysis relative to control; conditions: in vivo
Slc1a2 = assay: Effect on Slc1a2 mRNA expression in Sprague-Dawley rat liver at 15 mg/kg, ip administered twice daily every 12 hrs for 8 days by microarray analysis relative to control; conditions: read-out: FC
Rattus norvegicus [3] = assay: Effect on CYP17a1 mRNA expression in Sprague-Dawley rat liver at 15 mg/kg, ip administered twice daily every 12 hrs for 8 days by qRT-PCR analysis relative to control; conditions: in vivo
NR1I2 = assay: Effect on NR1I2 mRNA expression in Sprague-Dawley rat liver at 15 mg/kg, ip administered twice daily every 12 hrs for 8 days by microarray analysis relative to control; conditions: read-out: FC
Rattus norvegicus [4] = assay: Effect on PXR mRNA expression in Sprague-Dawley rat liver at 15 mg/kg, ip administered twice daily every 12 hrs for 8 days by qRT-PCR analysis relative to control; conditions: in vivo
CYP2j4 = assay: Effect on CYP2j4 mRNA expression in Sprague-Dawley rat liver at 15 mg/kg, ip administered twice daily every 12 hrs for 8 days by microarray analysis relative to control; conditions: read-out: FC
CYP2b2 [5] = assay: Effect on CYP2b2 mRNA expression in Sprague-Dawley rat liver at 15 mg/kg, ip administered twice daily every 12 hrs for 8 days by microarray analysis relative to control; conditions: read-out: FC
CYP2b2 [6] = assay: Upregulation of CYP2b2 protein expression in Sprague-Dawley rat liver microsomes at 15 mg/kg, ip administered twice daily every 12 hrs for 8 days by Western blot analysis relative to control; conditions: read-out: FC
Rattus norvegicus [7] = assay: Effect on Slc22a8 mRNA expression in Sprague-Dawley rat liver at 15 mg/kg, ip administered twice daily every 12 hrs for 8 days by qRT-PCR analysis relative to control; conditions: in vivo
CYP2e1 = assay: Effect on CYP2e1 mRNA expression in Sprague-Dawley rat liver at 15 mg/kg, ip administered twice daily every 12 hrs for 8 days by microarray analysis relative to control; conditions: read-out: FC
CYP4b1 = assay: Effect on CYP4b1 mRNA expression in Sprague-Dawley rat liver at 15 mg/kg, ip administered twice daily every 12 hrs for 8 days by microarray analysis relative to control; conditions: read-out: FC
Rattus norvegicus [8] = assay: Effect on Por mRNA expression in Sprague-Dawley rat liver at 15 mg/kg, ip administered twice daily every 12 hrs for 8 days by qRT-PCR analysis relative to control; conditions: in vivo
Slc38a4 = assay: Effect on Slc38a4 mRNA expression in Sprague-Dawley rat liver at 15 mg/kg, ip administered twice daily every 12 hrs for 8 days by microarray analysis relative to control; conditions: read-out: FC
Rattus norvegicus [9] = assay: Effect on CYP2b2 mRNA expression in Sprague-Dawley rat liver at 15 mg/kg, ip administered twice daily every 12 hrs for 8 days by qRT-PCR analysis relative to control; conditions: in vivo
Slc17a5 = assay: Effect on Slc17a5 mRNA expression in Sprague-Dawley rat liver at 15 mg/kg, ip administered twice daily every 12 hrs for 8 days by microarray analysis relative to control; conditions: read-out: FC
NR1I3 = assay: Effect on NR1I3 mRNA expression in Sprague-Dawley rat liver at 15 mg/kg, ip administered twice daily every 12 hrs for 8 days by microarray analysis relative to control; conditions: read-out: FC
Abca8b = assay: Effect on Abca8b mRNA expression in Sprague-Dawley rat liver at 15 mg/kg, ip administered twice daily every 12 hrs for 8 days by microarray analysis relative to control; conditions: read-out: FC
Ugt1a1 = assay: Effect on Ugt1a1 mRNA expression in Sprague-Dawley rat liver at 15 mg/kg, ip administered twice daily every 12 hrs for 8 days by microarray analysis relative to control; conditions: read-out: FC
CYP17a1 = assay: Effect on CYP17a1 mRNA expression in Sprague-Dawley rat liver at 15 mg/kg, ip administered twice daily every 12 hrs for 8 days by microarray analysis relative to control; conditions: read-out: FC
Rattus norvegicus [10] = assay: Effect on Abcb1a mRNA expression in Sprague-Dawley rat liver at 15 mg/kg, ip administered twice daily every 12 hrs for 8 days by qRT-PCR analysis relative to control; conditions: in vivo
FMO1 = assay: Effect on FMO1 mRNA expression in Sprague-Dawley rat liver at 15 mg/kg, ip administered twice daily every 12 hrs for 8 days by microarray analysis relative to control; conditions: read-out: FC
Abcb1a = assay: Effect on Abcb1a mRNA expression in Sprague-Dawley rat liver at 15 mg/kg, ip administered twice daily every 12 hrs for 8 days by microarray analysis relative to control; conditions: read-out: FC
Slc16a10 = assay: Effect on Slc16a10 mRNA expression in Sprague-Dawley rat liver at 15 mg/kg, ip administered twice daily every 12 hrs for 8 days by microarray analysis relative to control; conditions: read-out: FC
CYP2a1 = assay: Effect on CYP2a1 mRNA expression in Sprague-Dawley rat liver at 15 mg/kg, ip administered twice daily every 12 hrs for 8 days by microarray analysis relative to control; conditions: read-out: FC
Rattus norvegicus [11] = assay: Effect on CYP2d2 mRNA expression in Sprague-Dawley rat liver at 15 mg/kg, ip administered twice daily every 12 hrs for 8 days by qRT-PCR analysis relative to control; conditions: in vivo
Slc25a29 = assay: Effect on Slc25a29 mRNA expression in Sprague-Dawley rat liver at 15 mg/kg, ip administered twice daily every 12 hrs for 8 days by microarray analysis relative to control; conditions: read-out: FC

COc1ccc2c3c1O[C@H]1C(=O)CC[C@@]4(O)[C@@H](C2)N(C)CC[C@]314.Cl [OXYCODONE HYDROCHLORIDE]
fold induction at 8 days (Slc27a5): 1.6
fold induction at 8 days (CYP3a1): 1.7
Activity (Rattus norvegicus [1]): Active
fold induction at 8 days (ABCB1): 3
fold induction at 8 days (Yc2/Gsta5): 7
fold induction at 8 days (CYP4a10): 2
fold induction at 8 days (Slc22a5): 2.8
Activity (Rattus norvegicus [2]): Active
fold induction at 8 days (Slc1a2): 2.4
Activity (Rattus norvegicus [3]): Active
fold induction at 8 days (NR1I2): 2.9
Activity (Rattus norvegicus [4]): Active
fold induction at 8 days (CYP2j4): 2.4
fold induction at 8 days (CYP2b2 [5]): 6
fold induction at 8 days (CYP2b2 [6]): 5
Activity (Rattus norvegicus [7]): Active
fold induction at 8 days (CYP2e1): 1.5
fold induction at 8 days (CYP4b1): 1.9
Activity (Rattus norvegicus [8]): Active
fold induction at 8 days (Slc38a4): 1.8
Activity (Rattus norvegicus [9]): Active
fold induction at 8 days (Slc17a5): 1.5
fold induction at 8 days (NR1I3): 6.1
fold induction at 8 days (Abca8b): 2.3
fold induction at 8 days (Ugt1a1): 1.6
fold induction at 8 days (CYP17a1): 17.1
Activity (Rattus norvegicus [10]): Active
fold induction at 8 days (FMO1): 3.7
fold induction at 8 days (Abcb1a): 2.8
fold induction at 8 days (Slc16a10): 3
fold induction at 8 days (CYP2a1): 1.7
Activity (Rattus norvegicus [11]): Active
fold induction at 8 days (Slc25a29): 1.5
